Reference: patent US20240360165A1, “INHIBITORS OF CYCLIN DEPENDENT KINASE 7 (CDK7)” (Syros Pharmaceuticals, Inc., priority 2016, published 2024)
Read-outs that look alike come from different tables or passages of the source.

Assays:
[1] = system: A673 cells; experiment: Inhibition of proliferation of A673 cells (CyQUANT, 72 hour); format: cell-based, human
Protocol: A673 cells are a cell line derived from human […] Ewing's sarcoma. Representative compounds of the invention were tested at different concentrations (from […]; 0.5 log serial dilutions) for their ability to inhibit the proliferation of A673 cells. Known CDK inhibitors dinaciclib or N-((1S,3R)-3-((5-chloro-4-(1H-indol-3-yl)pyrimidin-2-yl)amino)cyclohexyl)-5-((E)-4-(dimethylamino)but-2-enamido)picolinamide and triptolide were used as positive controls. Cells were grown in Dulbecco's Modified Eagle's Medium, +10% FBS+1 mM Sodium Pyruvate. The cells were cultured at 37° C. in a humidified chamber in the presence of 5% CO2. Proliferation assays were conducted over a 72 hour time period. CyQUANT® (Life Technologies, Chicago, IL USA) was used to assess the anti-proliferative effects of the compounds following manufacturer's directions and utilizing the reagents supplied with the CyQUANT® kit.

[2] = target: T1, CDK12 (aa686-1082)/Cyclin K complex (Homo sapiens, UniProt Q9NYV4); experiment: CDK12 inhibition assay (Caliper/LabChip EZ Reader kinase assay); format: biochemical; conditions: Table 1; CDK12 (aa686-1082)/Cyclin K 50 nM, ATP 2 mM, 3 hr at 27° C.
T1 construct: CDK12 (aa686-1082)/Cyclin K complex
Protocol: (§1) Compounds of the invention were assayed for inhibition of CDK7, CDK9, CDK12, and CDK2 activity at Biortus Biosciences (Jiangyin, Jiangsu Province, P.R. of China) using kinase assays for each CDK developed with a Caliper/LabChip EZ Reader (Perkin Elmer, Waltham, MA).
(§2) Furthermore, the CDK9 inhibition assay used CDK9/Cyclin T1 complex (8 nM) and “5-FAM-CDK9tide” peptide substrate (2 μM, synthesized fluorophore-labeled peptide with the following sequence: 5-FAM-GSRTPMY-NH2 where 5-FAM is defined above and NH2 signifies a C-terminal amide) with 10 mM MgCl2 in the buffer composition listed above. […] Additionally, the CDK2 inhibition assay used CDK2/Cyclin E1 complex (0.5 nM) and “5-FAM-CDK7tide” ([…]) as defined above, with 2 mM MgCl2 in the buffer composition listed above.

[3] = target: CDK2/Cyclin E1 complex (Homo sapiens, UniProt P24941); experiment: CDK2 inhibition assay (Caliper/LabChip EZ Reader kinase assay); format: biochemical
Protocol: as §1, §2

[4] = target: CDK9/Cyclin T1 complex (Homo sapiens, UniProt P50750); experiment: CDK9 inhibition assay (Caliper/LabChip EZ Reader kinase assay); format: biochemical
Protocol: as §1, §2

[5] = target: CDK7/Cyclin H/MAT1 complex (Homo sapiens, UniProt P50613); experiment: CDK7 inhibition assay (Caliper/LabChip EZ Reader kinase assay); format: biochemical
Protocol: as §1, §2

[6] = Homo sapiens, A673, 72 h, A673 cells, 72 hour, CyQUANT, read-out: Inhibition of Proliferation of A673 Cells (calculated IC50)
[7] = Table 1, CDK2/Cyclin E1 0.5 nM, ATP 2 mM, 35 min at 27° C.
[8] = Table 1, CDK9/Cyclin T1 8 nM, ATP 2 mM, 15 min at 27° C.
[9] = Table 1, CDK7/Cyclin H/MAT1 6 nM, ATP 2 mM, 35 min at 27° C.
[10] = A673 cells, 72 hour, CyQUANT, read-out: Inhibition of Proliferation of A673 Cells (calculated IC50)
[11] = Homo sapiens, A673, 72 h, Table 3, comparison with structural analogs, 72 hour proliferation, read-out: A673 Cells
[12] = Table 3, comparison with structural analogs

T1 sequence (Q9NYV4 686-1082, species assumed): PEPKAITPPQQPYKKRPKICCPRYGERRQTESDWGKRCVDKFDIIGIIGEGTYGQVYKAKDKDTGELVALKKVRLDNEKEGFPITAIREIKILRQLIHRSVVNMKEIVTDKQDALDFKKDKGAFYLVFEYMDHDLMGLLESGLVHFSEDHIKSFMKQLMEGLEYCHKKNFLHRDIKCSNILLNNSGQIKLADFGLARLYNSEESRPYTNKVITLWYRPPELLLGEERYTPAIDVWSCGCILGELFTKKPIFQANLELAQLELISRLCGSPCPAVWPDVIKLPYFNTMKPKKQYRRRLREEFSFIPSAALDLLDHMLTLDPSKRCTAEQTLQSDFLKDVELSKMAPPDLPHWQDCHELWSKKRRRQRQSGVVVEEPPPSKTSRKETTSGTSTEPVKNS
T1 sequence (O75909 whole entry partner, species assumed, the tested form may be a part): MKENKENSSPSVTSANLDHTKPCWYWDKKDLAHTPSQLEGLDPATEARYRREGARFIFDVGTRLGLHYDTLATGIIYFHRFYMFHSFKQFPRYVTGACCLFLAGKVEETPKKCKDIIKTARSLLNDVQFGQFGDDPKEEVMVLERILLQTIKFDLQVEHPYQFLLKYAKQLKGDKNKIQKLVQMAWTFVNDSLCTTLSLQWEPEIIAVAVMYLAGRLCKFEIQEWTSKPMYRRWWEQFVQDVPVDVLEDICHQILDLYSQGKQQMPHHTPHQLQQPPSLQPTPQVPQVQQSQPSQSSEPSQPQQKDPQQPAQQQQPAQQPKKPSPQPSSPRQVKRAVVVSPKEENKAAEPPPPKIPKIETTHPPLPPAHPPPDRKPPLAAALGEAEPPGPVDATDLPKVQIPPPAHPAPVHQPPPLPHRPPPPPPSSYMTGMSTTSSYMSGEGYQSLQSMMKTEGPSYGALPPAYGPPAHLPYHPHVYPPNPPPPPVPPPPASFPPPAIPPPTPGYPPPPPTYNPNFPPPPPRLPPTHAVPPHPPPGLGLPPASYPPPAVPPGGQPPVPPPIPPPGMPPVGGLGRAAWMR
Sequence of CDK9/Cyclin T1 complex (P50750 whole entry, species assumed): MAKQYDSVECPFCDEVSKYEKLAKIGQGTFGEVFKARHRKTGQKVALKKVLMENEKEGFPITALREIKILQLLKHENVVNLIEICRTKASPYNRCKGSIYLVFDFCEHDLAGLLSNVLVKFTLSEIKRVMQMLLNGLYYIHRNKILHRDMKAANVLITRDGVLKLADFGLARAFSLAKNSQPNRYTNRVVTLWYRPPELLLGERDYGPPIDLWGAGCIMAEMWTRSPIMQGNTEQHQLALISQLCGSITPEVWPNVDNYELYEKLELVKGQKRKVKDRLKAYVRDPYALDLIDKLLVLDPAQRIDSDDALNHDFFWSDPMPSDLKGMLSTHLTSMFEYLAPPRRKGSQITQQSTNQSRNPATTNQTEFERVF
Sequence of CDK9/Cyclin T1 complex (O60563 whole entry partner, species assumed): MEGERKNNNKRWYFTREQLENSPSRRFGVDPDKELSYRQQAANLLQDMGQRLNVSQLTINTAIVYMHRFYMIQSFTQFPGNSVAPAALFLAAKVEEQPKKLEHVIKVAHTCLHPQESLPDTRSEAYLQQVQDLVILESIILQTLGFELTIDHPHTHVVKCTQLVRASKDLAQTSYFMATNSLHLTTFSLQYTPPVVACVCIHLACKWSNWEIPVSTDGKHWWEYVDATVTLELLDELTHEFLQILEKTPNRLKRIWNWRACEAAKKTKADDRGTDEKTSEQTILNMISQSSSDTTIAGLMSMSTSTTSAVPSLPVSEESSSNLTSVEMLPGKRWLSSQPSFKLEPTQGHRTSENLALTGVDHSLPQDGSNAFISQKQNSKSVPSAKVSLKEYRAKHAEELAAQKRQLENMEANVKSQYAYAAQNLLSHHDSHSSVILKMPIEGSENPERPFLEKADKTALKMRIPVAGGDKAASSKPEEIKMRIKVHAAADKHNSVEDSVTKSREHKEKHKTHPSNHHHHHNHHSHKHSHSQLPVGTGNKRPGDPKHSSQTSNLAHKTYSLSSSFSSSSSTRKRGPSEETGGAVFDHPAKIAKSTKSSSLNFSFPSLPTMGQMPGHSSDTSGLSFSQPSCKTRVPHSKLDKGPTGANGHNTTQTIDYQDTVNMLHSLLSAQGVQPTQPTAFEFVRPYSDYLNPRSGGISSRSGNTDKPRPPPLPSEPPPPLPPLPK
Sequence of CDK7/Cyclin H/MAT1 complex (P50613 whole entry, species assumed): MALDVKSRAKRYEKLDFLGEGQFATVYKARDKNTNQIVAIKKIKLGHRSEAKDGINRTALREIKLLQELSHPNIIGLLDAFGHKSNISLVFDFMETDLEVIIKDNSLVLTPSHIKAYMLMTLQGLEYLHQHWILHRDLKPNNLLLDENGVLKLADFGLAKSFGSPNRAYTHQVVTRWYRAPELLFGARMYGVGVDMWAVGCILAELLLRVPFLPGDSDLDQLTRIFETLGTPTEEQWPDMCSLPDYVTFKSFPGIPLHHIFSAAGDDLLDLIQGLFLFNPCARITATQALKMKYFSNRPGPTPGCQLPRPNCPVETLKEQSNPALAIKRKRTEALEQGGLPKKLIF
Sequence of CDK7/Cyclin H/MAT1 complex (P51946 whole entry partner, species assumed): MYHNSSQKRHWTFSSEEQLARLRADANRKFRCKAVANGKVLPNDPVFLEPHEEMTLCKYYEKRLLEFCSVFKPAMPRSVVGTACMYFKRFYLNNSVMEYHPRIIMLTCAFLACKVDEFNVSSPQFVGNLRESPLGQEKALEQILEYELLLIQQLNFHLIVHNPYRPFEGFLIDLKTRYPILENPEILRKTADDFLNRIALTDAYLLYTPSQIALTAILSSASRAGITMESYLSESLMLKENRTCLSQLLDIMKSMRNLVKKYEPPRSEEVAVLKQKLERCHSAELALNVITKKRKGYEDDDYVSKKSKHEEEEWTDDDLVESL
Sequence of CDK7/Cyclin H/MAT1 complex (P51948 whole entry partner, species assumed): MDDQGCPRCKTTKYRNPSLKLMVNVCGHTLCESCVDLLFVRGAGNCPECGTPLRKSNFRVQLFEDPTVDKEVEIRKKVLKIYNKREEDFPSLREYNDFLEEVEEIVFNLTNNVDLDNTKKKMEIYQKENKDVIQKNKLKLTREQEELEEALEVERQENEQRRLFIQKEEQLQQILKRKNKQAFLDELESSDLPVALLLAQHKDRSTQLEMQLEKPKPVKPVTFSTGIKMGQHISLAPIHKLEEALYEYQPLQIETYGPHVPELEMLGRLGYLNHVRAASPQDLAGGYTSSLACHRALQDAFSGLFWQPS

SMILES | IC50 [1, 6] | IC50 [2] | IC50 [3, 7] | IC50 [4, 8] | IC50 [5, 9] | IC50 [1, 10] | IC50 ([1]; Homo sapiens, A673 cells, 72 hour, CyQUANT, read-out: Inhibition of Proliferation of A673 Cells (calculated IC50)) | IC50 [1, 11] | IC50 [3, 12] | IC50 [4, 12] | IC50 [5, 12]
Brc1cnc(NC2CCCNC2)nc1-c1c[nH]c2ccccc12 (stereo in doubt) [Compound 133] | < 20 nM | 20 to 200 nM | 20 to 200 nM | 200 to 5000 nM | < 20 nM | – | – | – | – | – | –
CNC(=O)[C@@H]1CNC[C@@H](Nc2ncc(C(F)(F)F)c(-c3c[nH]c4ccccc34)n2)C1 [Compound 256] | – | 200 to 5000 nM | 200 to 5000 nM | > 5000 nM | 20 to 200 nM | 200 to 5000 nM | – | – | – | – | –
Fc1cc2[nH]cc(-c3nc(N[C@H]4CCCNC4)ncc3Cl)c2cc1F [Compound 111] | 20 to 200 nM | 20 to 200 nM | 200 to 5000 nM | 20 to 200 nM | < 20 nM | – | – | – | – | – | –
OC1CC=C(c2cccc3c(-c4nc(N[C@H]5CCCNC5)ncc4C(F)(F)F)c[nH]c23)CC1 (stereo partly drawn) [Compound 198] | – | 200 to 5000 nM | 200 to 5000 nM | 200 to 5000 nM | < 20 nM | < 20 nM | – | – | – | – | –
FC(F)(F)c1cnc(NC2C3CCC2NC3)nc1-c1c[nH]c2ccccc12 (stereo not drawn) [Compound 222, N-[4-(1H-indol-3-yl)-5-(trifluoromethyl)pyrimidin-2-yl]-3-azabicyclo [2.2.1]heptan-7-amine] | 20 to 200 nM | 200 to 5000 nM | 200 to 5000 nM | 200 to 5000 nM | 20 to 200 nM | – | – | – | – | – | –
O=C(C1CCC(Nc2ncc(C(F)(F)F)c(-c3c[nH]c4ccccc34)n2)CN1)N1CCC(O)C1 (mixture of isomers) [Compound 244] | 200 to 5000 nM | 200 to 5000 nM | 200 to 5000 nM | > 5000 nM | 20 to 200 nM | – | – | – | – | – | –
CC(C)CN1CCC[C@H](Nc2ncc(Cl)c(-c3c[nH]c4ccccc34)n2)C1 [Compound 145] | 200 to 5000 nM | 200 to 5000 nM | > 5000 nM | > 5000 nM | 20 to 200 nM | – | – | – | – | – | –
CC(C)(O)CCc1ccc2c(-c3nc(N[C@H]4CCCNC4)ncc3C(F)(F)F)c[nH]c2c1 [Compound 242, 2-methyl-4-[3-[2-[[(3S)-3-piperidyl]amino]-5-(trifluoromethyl)pyrimidin-4-yl]-1H-indol-6-yl] butan-2-ol] | 20 to 200 nM | 200 to 5000 nM | > 5000 nM | 200 to 5000 nM | 20 to 200 nM | – | – | – | – | – | –
Cc1nc(-c2ccc3c(-c4nc(N[C@H]5CCCNC5)ncc4C(F)(F)F)c[nH]c3c2)n[nH]1 [Compound 235] | 200 to 5000 nM | 200 to 5000 nM | 200 to 5000 nM | 200 to 5000 nM | < 20 nM | – | – | – | – | – | –
O[C@H]1CNC[C@@H](Nc2ncc(C(F)(F)F)c(-c3c[nH]c4ccccc34)n2)C1 [Compound 203, (3R,5S)-5-[[4-(1H-indol-3-yl)-5-(trifluoromethyl)pyrimidin-2-yl]amino]piperidin-3-ol] | < 20 nM | 200 to 5000 nM | 200 to 5000 nM | 200 to 5000 nM | < 20 nM | – | – | – | – | – | –
N#Cc1cn(-c2ccc3c(-c4nc(NC5CCCNC5)ncc4C(F)(F)F)c[nH]c3c2)cn1 (stereo not drawn) [Compound 249] | 20 to 200 nM | 200 to 5000 nM | > 5000 nM | > 5000 nM | < 20 nM | – | – | – | – | – | –
Clc1cnc(N[C@H]2CN3CCC2CC3)nc1-c1c[nH]c2ccccc12 [Compound 134] | – | > 5000 nM | > 5000 nM | > 5000 nM | > 5000 nM | 200 to 5000 nM | – | – | – | – | –
CC(O)c1cnc(NC2CCCNC2)nc1-c1c[nH]c2ccccc12 (single isomer, unassigned) [Compound 238] | 200 to 5000 nM | > 5000 nM | > 5000 nM | > 5000 nM | 200 to 5000 nM | – | – | – | – | – | –
C[C@H]1CNC[C@@H](Nc2ncc(Cl)c(-c3c[nH]c4ccccc34)n2)C1 [Compound 201, 5-chloro-4-(1H-indol-3-yl)-N-[(3S,5R)-5-methyl-3-piperidyl]pyrimidin-2-amine] | < 20 nM | 20 to 200 nM | 200 to 5000 nM | 200 to 5000 nM | < 20 nM | – | – | – | – | – | –
CSc1cnc(N[C@H]2CCCNC2)nc1-c1c[nH]c2cc(C#N)ccc12 [Compound 272, 3-[5-methylsulfanyl-2-[[(3S)-3-piperidyl]amino]pyrimidin-4-yl]-1H-indole-6-carbonitrile] | 20 to 200 nM | 200 to 5000 nM | 200 to 5000 nM | 200 to 5000 nM | < 20 nM | – | – | – | – | – | –
FCCc1cnc(N[C@H]2CCCNC2)nc1-c1c[nH]c2ccccc12 [Compound 206] | 200 to 5000 nM | 200 to 5000 nM | > 5000 nM | 200 to 5000 nM | 20 to 200 nM | – | – | – | – | – | –
C=Cc1cnc(N[C@H]2CCCNC2)nc1-c1c[nH]c2ccccc12 [Compound 218] | 20 to 200 nM | 200 to 5000 nM | 200 to 5000 nM | 200 to 5000 nM | < 20 nM | – | – | – | – | – | –
FC(F)(F)c1cnc(N[C@H]2CCCNC2)nc1-c1c[nH]c2cc(-c3cccnc3)ccc12 [Compound 223, N-[(3S)-3-piperidyl]-4-[6-(3-pyridyl)-1H-indol-3-yl]-5-(trifluoromethyl) pyrimidin-2-amine] | 20 to 200 nM | 200 to 5000 nM | 200 to 5000 nM | 200 to 5000 nM | < 20 nM | – | – | – | – | – | –
CC(C)C1CC[C@H](Nc2ncc(C(F)(F)F)c(-c3c[nH]c4ccccc34)n2)CN1 (mixture of isomers) [Compound 257] | 200 to 5000 nM | > 5000 nM | > 5000 nM | > 5000 nM | 20 to 200 nM | – | – | – | – | – | –
FC(F)(F)c1cnc(NC2CNCc3ccccc32)nc1-c1c[nH]c2ccccc12 (stereo not drawn) [Compound 215] | 200 to 5000 nM | > 5000 nM | > 5000 nM | > 5000 nM | 20 to 200 nM | – | – | – | – | – | –
O=S1(=O)CCN(c2cccc3c(-c4nc(N[C@H]5CCCNC5)ncc4Cl)c[nH]c23)CC1 [Compound 196, 5-chloro-4-[7-(1,1-dioxo-1,4-thiazinan-4-yl)-1H-indol-3-yl]-N-[(3S)-3-piperidyl]pyrimidin-2-amine] | 20 to 200 nM | 200 to 5000 nM | 200 to 5000 nM | 200 to 5000 nM | < 20 nM | – | – | – | – | – | –
COc1cnc(N[C@H]2CCCNC2)nc1-c1c[nH]c2ccccc12 [Compound 189] | – | > 5000 nM | > 5000 nM | > 5000 nM | 200 to 5000 nM | 200 to 5000 nM | – | – | – | – | –
Ic1cnc(N[C@H]2CCCNC2)nc1-c1c[nH]c2ccccc12 [Compound 147] | – | 200 to 5000 nM | 20 to 200 nM | 200 to 5000 nM | < 20 nM | < 20 nM | – | – | – | – | –
O=C(c1ccc2c(-c3nc(N[C@H]4CCCNC4)ncc3C(F)(F)F)c[nH]c2c1)N1CC[C@@H](O)C1 [Compound 205, [(3R)-3-hydroxypyrrolidin-1-yl]-[3-[2-[[(3S)-3-piperidyl]amino]-5-(trifluoromethyl)pyrimidin-4-yl]-1H-indol-6-yl]methanone] | 200 to 5000 nM | 200 to 5000 nM | > 5000 nM | > 5000 nM | < 20 nM | – | – | – | – | – | –
CCOP(C)(=O)c1cccc2c(-c3nc(N[C@H]4CCCNC4)ncc3C(F)(F)F)c[nH]c12 (stereo partly drawn) [Compound 179] | – | 200 to 5000 nM | 200 to 5000 nM | 200 to 5000 nM | < 20 nM | – | < 20 nM | – | – | – | –
Fc1cc2[nH]cc(-c3nc(N[C@H]4CCCNC4)ncc3C(F)(F)F)c2cc1F [Compound 184] | – | 20 to 200 nM | 20 to 200 nM | 20 to 200 nM | < 20 nM | < 20 nM | – | – | – | – | –
FC(F)(F)c1cnc(N[C@H]2CCC3(CC3)NC2)nc1-c1c[nH]c2ccccc12 [Compound 212] | < 20 nM | 200 to 5000 nM | 200 to 5000 nM | 200 to 5000 nM | < 20 nM | – | – | – | – | – | –
C[C@]1(N)CC[C@@H](Nc2ncc(C(F)(F)F)c(-c3c[nH]c4ccccc34)n2)CC1 [reference compound] | – | – | – | – | – | – | – | 20 to 200 nM | 200 to 5000 nM | > 5000 nM | 200 to 5000 nM
C[C@]1(N)CC[C@@H](Nc2ncc(C(F)(F)F)c(-c3n[nH]c4ccccc34)n2)CC1 [reference compound] | – | – | – | – | – | – | – | 20 to 200 nM | 200 to 5000 nM | 200 to 5000 nM | 200 to 5000 nM
FC(F)(F)c1cnc(N[C@H]2CCCNC2)nc1-c1c[nH]c2ccccc12 | – | – | – | – | – | – | – | < 20 nM | 200 to 5000 nM | 20 to 200 nM | < 20 nM
